From patent US9133496B2, “Material for screening for compound acting on ion channel and use thereof” (priority 2010, dated 2015)

Assays:
Kir 2.1 channel = target: T1, Kir 2.1 channel (Homo sapiens, UniProt P63252); assay: Kir channel current in HEK-Kir cells, voltage clamp method; type: cell-based; conditions: 100 μM Ba ions, FIG. 2A
T1 construct: expressed in transfected cells
T1 sequence (P63252 1-427): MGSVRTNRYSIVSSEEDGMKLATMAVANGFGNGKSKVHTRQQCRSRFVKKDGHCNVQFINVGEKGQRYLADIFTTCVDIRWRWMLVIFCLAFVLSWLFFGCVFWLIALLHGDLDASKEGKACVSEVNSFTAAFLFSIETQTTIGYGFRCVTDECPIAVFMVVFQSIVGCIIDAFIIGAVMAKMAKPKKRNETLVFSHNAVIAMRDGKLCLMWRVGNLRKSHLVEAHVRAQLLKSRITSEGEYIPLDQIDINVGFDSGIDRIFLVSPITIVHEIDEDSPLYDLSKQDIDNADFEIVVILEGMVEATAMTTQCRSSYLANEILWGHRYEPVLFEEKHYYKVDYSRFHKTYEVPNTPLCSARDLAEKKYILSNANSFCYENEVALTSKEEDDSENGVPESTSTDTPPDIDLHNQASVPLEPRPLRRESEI
Description: (§1) Human-derived embryonic kidney cells (HEK293 cells) were purchased from the Health Sciences Research Resource Bank (HSRRB). 10% FBS (Gibco Corp.) was added thereto followed by culturing at 37° C. in 5% CO2 in D-MEM medium (Wako Pure Chemical Industries, Ltd.) containing 100 U/ml penicillin (Wako Pure Chemical Industries, Ltd.) and 100 μg/ml streptomycin (Meiji Seika Kaisha, Ltd.). pcDNA/Kir 2.1, obtained by subcloning human-derived Kir 2.1 (NM_00891.2) in pcDNA3.1(+) (Invitrogen Corp.), was inserted using Lipofectamine 2000 reagent (Invitrogen Corp.) followed by culturing in medium obtained by adding 0.2 mg/ml Zeocin (Invitrogen Corp.) to the above-mentioned D-MEM medium and then cloning Zeocin resistant cells to produce Kir 2.1 constantly expressing cells (HEK-Kir). In addition, the inactivated mutant Nav-QQQ (HEK-Kir-mutated Nay) was inserted into the Kir 2.1 constantly expressing cells using the same method followed by conducting experiments 24 to 72 hours later.
Kir channel current was measured by applying the voltage clamp method to HEK-Kir cells.

HEK-Kir cells = assay: Membrane potential of HEK-Kir cells, current clamp method; type: cell-based, human; conditions: 100 μM Ba ions, resting potential about −70 mV before, FIG. 2B
[1] = tested on: HEK-Kir-mutated Nav cells; assay: DiBAC4(3) membrane potential fluorescence under high K+ stimulation in HEK-Kir-mutated Nav cells; type: cell-based, human; conditions: 1 mM lidocaine, extracellular K ion 5.9 mM to 15.3 mM, FIG. 17
Description: In the present example, a study was conducted on measurement of membrane potential using a membrane potential-sensitive dye in the form of DiBAC4(3), and using an extracellular solution containing K ions at a high concentration for depolarizing stimulation.
After loading two types of cells (HEK and HEK-Kir-mutated Nav cells) with 100 nM DiBAC4(3) (bis(1,3-dibutylbarbituric acid)trimethine oxanol) in normal HEPES buffer containing the dye for 30 minutes at room temperature, and fluorescence was measured at 520 nm or higher by exciting at 488 nm and reflecting with a dichroic mirror at 505 nm. In addition, high K^+ extracellular fluid having an increased K ion concentration was used as a stimulus to depolarize the cell membrane. This is because K ions are primarily involved in formation of resting membrane potential. […] In the present example, changes in fluorescence intensity of two types of cells were measured using this depolarizing stimulus. Furthermore, measurements were carried out based on a value of 1 for fluorescence intensity in the case of making the extracellular K ion concentration to be 140 mM K^+. The Argus/HiSCA high-speed, cooled CCD camera fluorescent imaging system (Hamamatsu Photonics K.K.) was used to measure fluorescence.

[2] = tested on: HEK-Kir-mutated Nav cells; assay: Cell death by electrical stimulation, MTT method, HEK-Kir-mutated Nav cells; type: cell-based, human; conditions: square wave 80 mA, 200 ms, three times at 3 min intervals, FIG. 6
Description: as §1, with “In addition, the inactivated mutant Nav-QQQ (HEK-Kir-mutated Nay) was inserted into the Kir 2.1 constantly expressing cells using the same method followed by conducting experiments 24 to 72 hours later.” left out
It was clearly determined from the results described in section 2 above that an extremely long action potential is generated in the mutant type Nav 1.5 channel. Since there is thought to be the possibility of cell death occurring when the action potential is generated by electrical stimulation, cell death attributable to electrical stimulation was measured. […] On the basis thereof, cell death was determined to occur in HEK-Kir-mutated Nav cells as a result of generating an extremely long action potential, while inhibition of Na ion channels blocked cell death.

| Compound | inward Kir channel current (Kir 2.1 channel) | resting membrane potential (HEK-Kir cells) | changes in fluorescence caused by high K+ stimulation [1] | occurrence of cell death attributable to electrical stimulation [2] |
| --- | --- | --- | --- | --- |
| [Ba+2] [Ba ions] | inhibited | became shallow |  |  |
| CCN(CC)CC(=O)Nc1c(C)cccc1C [lidocaine] |  |  | inhibited | inhibited |
